Experimental data reported in patent US9944597B2, “Polysubstituted pyrroles having microtubule-disrupting, cytotoxic and antitumor activities and methods of use thereof” (THE BOARD OF REGENTS OF THE UNIVERSITY OF TEXAS SYSTEM, priority 2013, dated 2018).
Entries after “also recorded” stand apart in the source; their conditions may differ. Where two headings read alike, the source gives them in different places.

What was measured:
PC-3 xenograft = settings: i.p. dosing at relatively high doses, after 14 days of treatment; cited from earlier work
[1] = tested on: variety of cancer cell lines; settings: average over a variety of cancer cell lines; read-out: antiproliferative activity, average IC50; cited from earlier work
P-glycoprotein = P-glycoprotein (Homo sapiens, UniProt P08183); settings: cited from earlier work
A-10 cells [2] = settings: Table 53; literature data from Da et al. 2013; read-out: Microtubule Depolymerization EC50; cited from earlier work
[3] = tested on: MDA-MB-435 (human melanoma cancer cells); settings: Table 53; literature data from Da et al. 2013; read-out: MDA-MB-435 Antiproliferative IC50; cited from earlier work
[4] = tested on: MDA-MB-435 (human melanoma cancer cells); test: Antiproliferative SRB assay, MDA-MB-435; format: cell-based; settings: Homo sapiens, MDA-MB-435; Table 53; own compounds; read-out: MDA-MB-435 Antiproliferative IC50
Method in brief: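 After 24 h attachment, MDA-MB-435 cells were exposed to compounds for 48 h, then fixed with trichloroacetic acid. Cellular protein was quantified by sulforhodamine B staining. IC50 for proliferation inhibition was taken from the linear portion of log concentration–response curves.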

HeLa cells [5] = test: Cell cycle distribution by flow cytometry; format: cell-based, human; settings: HeLa cells treated for 18 hr; FIG. 3: 25 nM NT-7-16, 12.5 nM paclitaxel
Description: The effects of NT-7-16 on cell cycle distribution were determined. […] The cells were stained with Kirshan's reagent (Kirshan, Cell Biol. 66, 188-93 (1975)), and cell cycle distribution was measured using a Millipore Muse flow cytometer.
The effects of NT-7-16 on cell cycle distribution were determined. […] The cells were stained with Kirshan's reagent (Kirshan Cell Biol. 66, 188-93. (1975)), and cell cycle distribution was measured using a Millipore Muse flow cytometer.

[6] = target: T1, purified porcine brain tubulin (Sus scrofa, UniProt P02554); test: Inhibition of polymerization of purified tubulin (absorbance at 340 nm); format: biochemical
T1 construct: of Purified Porcine Brain Tubulin; from tissue; host or cells: porcine brain

A-10 cells [7] = test: Cellular microtubule loss by indirect immunofluorescence; format: cell-based, rat; settings: Rattus norvegicus, A10; Table 53; own compounds; read-out: Microtubule Depolymerization EC50
Method in brief: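 Rat embryonic vascular smooth muscle cells were treated across a range of compound concentrations. Microtubules were stained by indirect β-tubulin immunofluorescence, with DAPI for DNA. EC50 is the concentration giving about 50% interphase microtubule loss, scored visually, from curves over at least three experiments.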

HeLa cells [8] = test: Mitotic spindles by indirect immunofluorescence; format: cell-based, human; settings: 18 h, 15 nM or 25 nM
Description: The effects of NT-7-16 on mitotic spindles were evaluated in HeLa cells by indirect immunofluorescence. HeLa cells were treated for 18 h with (A) vehicle (DMSO), (B) 15 nM NT-7-16 or (C) 25 nM NT-7-16. […] These effects are consistent with the actions of other microtubule disrupting agents. The presence of lagging chromosomes is indicated by the arrows and is caused by disruption of normal microtubule dynamics.

MDA-MB-435 xenograft = MDA-MB-435 xenograft murine model; format: in vivo
Description: The antitumor activity of NT-7-45 was evaluated in the MDA-MB-435 xenograft murine model of cancer. MDA-MB-435 cells were implanted subcutaneously into both flanks of nude mice. Mice were treated periodically with six injections of NT-7-45 i.p. at 75 mg/kg, suspended in a mixture of Tween80, DMSO and PBS.
The antitumor activity of NT-7-16 was evaluated in the MDA-MB-435 xenograft murine model of cancer. MDA-MB-435 cells were implanted subcutaneously into both flanks of nude mice. Mice were treated on days 1, 4, 7, 11, 14, 18, 20 and 22 by injecting NT-7-16 i.p. at 50 mg/kg suspended in a mixture of Tween80, DMSO and PBS. […] As shown in FIG. 5-7, NT-7-16 inhibited tumor growth as compared to vehicle-treated controls in a statistically significant (p<0.05) manner at days 11, 13, 15, 18 and 22.

[9] = target: colchicine binding site on tubulin (Sus scrofa, UniProt P02554); test: Colchicine site binding, fluorometric assay
Chain of colchicine binding site on tubulin (P02554 whole entry): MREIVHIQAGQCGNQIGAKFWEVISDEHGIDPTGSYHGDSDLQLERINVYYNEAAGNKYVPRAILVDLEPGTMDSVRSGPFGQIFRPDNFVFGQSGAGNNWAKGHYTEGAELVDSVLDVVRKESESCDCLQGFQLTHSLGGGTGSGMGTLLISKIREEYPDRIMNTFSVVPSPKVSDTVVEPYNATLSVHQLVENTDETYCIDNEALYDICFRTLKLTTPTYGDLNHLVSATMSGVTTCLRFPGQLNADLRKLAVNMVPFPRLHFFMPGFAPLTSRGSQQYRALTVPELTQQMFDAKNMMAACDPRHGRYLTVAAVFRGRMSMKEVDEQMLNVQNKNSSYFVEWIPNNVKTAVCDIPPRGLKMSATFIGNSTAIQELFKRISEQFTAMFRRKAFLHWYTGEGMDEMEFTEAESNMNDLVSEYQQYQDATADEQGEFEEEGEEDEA
Chain of colchicine binding site on tubulin (P02550 whole entry partner): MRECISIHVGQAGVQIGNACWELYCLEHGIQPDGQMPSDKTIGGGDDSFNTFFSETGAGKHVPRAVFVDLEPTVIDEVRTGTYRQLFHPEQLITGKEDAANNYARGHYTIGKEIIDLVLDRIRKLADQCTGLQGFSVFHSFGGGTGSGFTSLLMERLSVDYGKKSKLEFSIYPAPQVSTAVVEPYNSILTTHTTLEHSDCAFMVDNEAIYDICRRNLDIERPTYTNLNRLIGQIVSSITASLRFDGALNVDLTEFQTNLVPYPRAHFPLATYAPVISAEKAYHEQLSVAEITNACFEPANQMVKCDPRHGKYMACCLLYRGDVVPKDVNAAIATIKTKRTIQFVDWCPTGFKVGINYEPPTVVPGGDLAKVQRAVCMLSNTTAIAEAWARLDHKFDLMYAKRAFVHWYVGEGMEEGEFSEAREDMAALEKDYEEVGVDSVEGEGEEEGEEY

T1 sequence (P02554 whole entry): as the sequence (P02554 whole entry) above
T1 sequence (P02550 whole entry partner): as the sequence (P02550 whole entry partner) above
Chain of P-glycoprotein (P08183 whole entry): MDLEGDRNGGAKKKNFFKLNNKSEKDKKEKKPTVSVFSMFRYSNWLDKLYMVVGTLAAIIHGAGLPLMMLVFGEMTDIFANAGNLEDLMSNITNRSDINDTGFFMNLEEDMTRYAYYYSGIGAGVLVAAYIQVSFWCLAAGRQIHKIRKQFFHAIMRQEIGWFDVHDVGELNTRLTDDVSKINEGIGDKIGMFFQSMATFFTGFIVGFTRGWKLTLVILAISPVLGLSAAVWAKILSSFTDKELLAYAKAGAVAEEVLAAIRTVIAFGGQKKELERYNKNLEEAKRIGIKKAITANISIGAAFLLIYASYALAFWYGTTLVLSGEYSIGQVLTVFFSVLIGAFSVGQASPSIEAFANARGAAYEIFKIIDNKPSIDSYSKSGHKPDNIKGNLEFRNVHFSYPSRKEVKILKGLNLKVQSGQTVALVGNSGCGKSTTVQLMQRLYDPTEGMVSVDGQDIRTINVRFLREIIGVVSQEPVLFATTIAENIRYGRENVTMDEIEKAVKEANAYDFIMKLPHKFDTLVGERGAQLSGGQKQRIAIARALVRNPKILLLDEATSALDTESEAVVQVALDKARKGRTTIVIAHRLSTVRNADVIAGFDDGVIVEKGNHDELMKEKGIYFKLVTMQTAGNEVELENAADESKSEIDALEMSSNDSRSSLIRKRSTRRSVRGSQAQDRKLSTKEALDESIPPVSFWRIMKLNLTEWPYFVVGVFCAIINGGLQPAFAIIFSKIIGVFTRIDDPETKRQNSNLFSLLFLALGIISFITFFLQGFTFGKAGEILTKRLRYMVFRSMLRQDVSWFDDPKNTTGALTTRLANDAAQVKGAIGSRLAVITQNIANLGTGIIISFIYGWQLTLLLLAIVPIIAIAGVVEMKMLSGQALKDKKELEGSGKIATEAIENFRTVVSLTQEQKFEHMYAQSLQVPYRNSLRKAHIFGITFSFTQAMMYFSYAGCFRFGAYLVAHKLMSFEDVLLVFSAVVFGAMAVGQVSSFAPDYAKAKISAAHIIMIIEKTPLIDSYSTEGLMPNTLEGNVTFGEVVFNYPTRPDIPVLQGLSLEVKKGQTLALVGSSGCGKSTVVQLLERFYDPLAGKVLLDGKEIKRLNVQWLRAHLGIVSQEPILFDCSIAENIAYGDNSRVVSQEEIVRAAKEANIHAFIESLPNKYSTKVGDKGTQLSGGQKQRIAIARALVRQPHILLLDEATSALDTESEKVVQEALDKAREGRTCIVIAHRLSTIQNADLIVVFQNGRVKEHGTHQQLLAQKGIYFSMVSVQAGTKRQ

For CCOC(=O)c1[nH]c(Br)c(-c2ccc(OC)c(OC)c2)c1Br [JG-03-14, 4-[(3,4-dimethoxy)-phenyl]-3,5-dibromopyrrole 2-carboxylic acid ethyl ester], the “reduction in tumor burden” value (PC-3 xenograft) is listed as “greater than 50%”, the IC50 [1] is listed as 62 nM and the “substrate for transport by P-glycoprotein” value (P-glycoprotein) is listed as “poor substrate”. For the same compound, the EC50 (A-10 cells [2]) was 490 nM and the IC50 [3] was 36 ± 2 nM.

With CCOC(=O)c1[nH]c(Br)c(-c2ccc(OC)c(OC)c2OC)c1Br [NT-7-16, 3,5-Dibromo-4-(2,3,4-trimethoxyphenyl)-1H-pyrrole-2-carboxylic acid ethyl ester] the IC50 [4] was 14 ± 5 nM, the cell cycle distribution (HeLa cells [5]) was “initiated mitotic accumulation; also recorded: G2/M arrest” and the “inhibition of tubulin assembly” value ([6]; at concentrations of 2-5 μM) was “almost total inhibition”. For the same compound, the “effect on tubulin polymerization (turbidity, FIG. 2, FIG. 10)” value ([6]; result in words) was “concentration-dependent inhibition of tubulin assembly; also recorded: inhibits tubulin polymerization”, the EC50 (A-10 cells [7]) was 345 nM and the “effects on mitotic spindles” value (HeLa cells [8]) was “aberrant mitotic spindles”. For the same compound, the “tumor growth in MDA-MB-435 xenograft” value (MDA-MB-435 xenograft; 50 mg/kg i.p. on days 1, 4, 7, 11, 14, 18, 20, 22, 25-day model) was “significant antitumor effects; also recorded: prevented tumor growth; also recorded: statistically significant (p<0.05) inhibition of tumor growth”, the “toxicity in xenograft study” value (MDA-MB-435 xenograft; 50 mg/kg i.p., eight cumulative doses) was “no evidence of toxicity; also recorded: no overt toxicity” and the animal body weight (MDA-MB-435 xenograft; 50 mg/kg i.p., over 25 days) was “no significant change in animal body weight; also recorded: no significant weight loss”. For the same compound, the inhibition at 10 µM ([9]; read-out: inhibition of colchicine binding to tubulin) was ~80% and the “effect on colchicine binding (FIG. 9)” value ([9]; result in words) was “concentration dependent inhibition of colchicine binding”.
